Our source for the EC50 values is patent US11046686B2, “Thiadiazole IRAK4 compounds” (Gilead Sciences, Inc., priority 2018, dated 2021).

Structures are written as SMILES.

One assay relates to TNFα. As to the kind of experiment: IRAK4 Monocyte TNFα Cell Based Assay. Also on record: species or system human. Conditions: Homo sapiens, Monocyte, read-out: EC50 MONO TNF HTRF. A digest of the protocol: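 TNFα release quantified by HTRF (cryptate/XL665 antibody pair, overnight at RT) after 1 h compound pre-incubation (0.1% DMSO) and 4 h LPS challenge at 50 pg/ml, 37 °C, 5,000 monocytes per well. Signal ratio normalised between unstimulated (0%) and stimulated (100%) controls.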
Turning to `CC(C)Nc1cc(-c2ccc3cc(C#N)cnn23)ncc1-c1nnc(N2CC3CC(C2)N3C(=O)CN=S(C)(C)=O)s1` [Example 107, 7-(5-(5-(6-(2-((dimethyl(oxo)-16-sulfanylidene)amino)acetyl)-3,6-diazabicyclo[3.1.1]heptan-3-yl)-1,3,4-thiadiazol-2-yl)-4-(isopropylamino)pyridin-2-yl)pyrrolo[1,2-b]pyridazine-3-carbonitrile], the EC50 (commonly the concentration giving half of the maximal effect) worked out at 18.4 nM.

Regarding `CC(C)Nc1cc(-c2ccc3cc(C#N)cnn23)ncc1-c1nnc(N2CC3CC(C2)N3C(=O)N2CCN(C)CC2)s1` [Example 108, 7-(4-(isopropylamino)-5-(5-(6-(4-methylpiperazine-1-carbonyl)-3,6-diazabicyclo[3.1.1]heptan-3-yl)-1,3,4-thiadiazol-2-yl)pyridin-2-yl)pyrrolo[1,2-b]pyridazine-3-carbonitrile], the EC50 was 20.6 nM.

In the case of `CC(=O)N1C2CC1CN(c1nnc(-c3cnc(-c4ccc5cc(C#N)cnn45)cc3NC3(C)COC3)s1)C2` [Example 111, 7-(5-(5-(6-acetyl-3,6-diazabicyclo[3.1.1]heptan-3-yl)-1,3,4-thiadiazol-2-yl)-4-((3-methyloxetan-3-yl)amino)pyridin-2-yl)pyrrolo[1,2-b]pyridazine-3-carbonitrile], the EC50 turned out to be 8.8 nM.

For the compound `CC1(Nc2cc(-c3ccc4cc(C#N)cnn34)ncc2-c2nnc(N3CC4CC(C3)N4C(=O)C(C)(C)O)s2)COC1` [Example 112, 7-(5-(5-(6-(2-hydroxy-2-methylpropanoyl)-3,6-diazabicyclo[3.1.1]heptan-3-yl)-1,3,4-thiadiazol-2-yl)-4-((3-methyloxetan-3-yl)amino)pyridin-2-yl)pyrrolo[1,2-b]pyridazine-3-carbonitrile], the EC50 was 13.1 nM.

As to `CN1CCN(C(=O)N2C3CC2CN(c2nnc(-c4cnc(-c5ccc6cc(C#N)cnn56)cc4NC4(C)COC4)s2)C3)CC1` [Example 114, 7-(4-((3-methyloxetan-3-yl)amino)-5-(5-(6-(4-methylpiperazine-1-carbonyl)-3,6-diazabicyclo[3.1.1]heptan-3-yl)-1,3,4-thiadiazol-2-yl)pyridin-2-yl)pyrrolo[1,2-b]pyridazine-3-carbonitrile], the EC50 amounted to 24.4 nM.

With `CN1CCC(C(=O)N2C3CC2CN(c2nnc(-c4cnc(-c5ccc6cc(C#N)cnn56)cc4NC4(C)COC4)s2)C3)CC1` [Example 118, 7-(4((3-methyloxetan-3-yl)amino)-5-(5-(6-(1-methylpiperidine-4-carbonyl)-3,6-diazabicyclo[3.1.1]heptan-3-yl)-1,3,4-thiadiazol-2-yl)pyridin-2-yl)pyrrolo[1,2-b]pyridazine-3-carbonitrile], the EC50 was 29 nM.

Staying with this assay, now noted: human monocytes; second part of Table 2, compounds 33-343; unit inferred; read-out: EC50 MONO TNF HTRF.
As to `COC(=O)N1CCN(C(=O)N[C@@H]2[C@@H]3CC[C@H]2CN(c2nnc(-c4cnc(-c5ccc6cc(C#N)cnn56)cc4NC(C)C)s2)C3)CC1` [Example 105, methyl 4-(((1R,5S,8s)-3-(5-(6-(3-cyanopyrrolo[1,2-b]pyridazin-7-yl)-4-(isopropylamino)pyridin-3-yl)-1,3,4-thiadiazol-2-yl)-3-azabicyclo[3.2.1]octan-8-yl)carbamoyl)piperazine-1-carboxylate], the EC50 was 4.2 nM.

On to `CC(C)Nc1cc(-c2ccc3cc(C#N)cnn23)ncc1-c1nnc(N2C[C@H]3CC[C@@H](C2)[C@@H]3NC(=O)N2CCN(S(C)(=O)=O)CC2)s1` [Example 106, N-((1R,5S,8s)-3-(5-(6-(3-cyanopyrrolo[1,2-b]pyridazin-7-yl)-4-(isopropylamino)pyridin-3-yl)-1,3,4-thiadiazol-2-yl)-3-azabicyclo[3.2.1]octan-8-yl)-4-(methylsulfonyl)piperazine-1-carboxamide], for which the EC50 amounted to 2.6 nM.

`CC1(Nc2cc(-c3ccc4cc(C#N)cnn34)ncc2-c2nnc(N3C[C@H]4CC[C@@H](C3)[C@@H]4NC(=O)CN=S(C)(C)=O)s2)COC1` [Example 109, N-((1R,5S,8s)-3-(5-(6-(3-cyanopyrrolo[1,2-b]pyridazin-7-yl)-4-((3-methyloxetan-3-yl)amino)pyridin-3-yl)-1,3,4-thiadiazol-2-yl)-3-azabicyclo[3.2.1]octan-8-yl)-2-((dimethyl(oxo)-16-sulfanylidene)amino)acetamide]: the EC50 amounted to 4.1 nM.

As to `CN1CCN(C(=O)N[C@@H]2[C@@H]3CC[C@H]2CN(c2nnc(-c4cnc(-c5ccc6cc(C#N)cnn56)cc4NC4(C)COC4)s2)C3)CC1` [Example 110, N-((1R,5S,8s)-3-(5-(6-(3-cyanopyrrolo[1,2-b]pyridazin-7-yl)-4-((3-methyloxetan-3-yl)amino)pyridin-3-yl)-1,3,4-thiadiazol-2-yl)-3-azabicyclo[3.2.1]octan-8-yl)-4-methylpiperazine-1-carboxamide], the EC50 is 1.8 nM.

Consider `CC1(Nc2cc(-c3ccc4cc(C#N)cnn34)ncc2-c2nnc(N3CC4CC(C3)N4C(=O)CN=S(C)(C)=O)s2)COC1` [Example 113, 7-(5-(5-(6-(2-((dimethyl(oxo)-16-sulfanylidene)amino)acetyl)-3,6-diazabicyclo[3.1.1]heptan-3-yl)-1,3,4-thiadiazol-2-yl)-4-((3-methyloxetan-3-yl)amino)pyridin-2-yl)pyrrolo[1,2-b]pyridazine-3-carbonitrile], for which the EC50 worked out at 47.4 nM.

For the compound `C[C@H](C#N)Nc1cc(-c2ccc3cc(C#N)cnn23)ncc1-c1nnc(N2CC3CC(C2)N3C(=O)C(C)(C)O)s1` [Example 115], the EC50 came out at 3.5 nM.

Regarding `CC(C)Nc1cc(-c2ccc3cc(C#N)cnn23)ncc1-c1nnc(N2CC3CC(C2)N3C(=O)C2CCN(C)CC2)s1` [Example 117], the EC50 came out at 11.1 nM.

With `CN1CCC(C(=O)N[C@@H]2[C@@H]3CC[C@H]2CN(c2nnc(-c4cnc(-c5ccc6cc(C#N)cnn56)cc4NC4(C)COC4)s2)C3)CC1` [Example 119, N-((1R,5S,8s)-3-(5-(6-(3-cyanopyrrolo[1,2-b]pyridazin-7-yl)-4-((3-methyloxetan-3-yl)amino)pyridin-3-yl)-1,3,4-thiadiazol-2-yl)-3-azabicyclo[3.2.1]octan-8-yl)-1-methylpiperidine-4-carboxamide], the EC50 turned out to be 1.2 nM.

For the compound `CC(C)Nc1cc(-c2ccc3cc(C#N)cnn23)ncc1-c1nnc([C@H]2CC[C@H](NC(=O)C3CC3)CC2)s1` [Example 125, N-((1r,4r)-4-(5-(6-(3-cyanopyrrolo[1,2-b]pyridazin-7-yl)-4-(isopropylamino)pyridin-3-yl)-1,3,4-thiadiazol-2-yl)cyclohexyl)cyclopropanecarboxamide], the EC50 stood at 5.4 nM.

Turning to `COC(=O)N[C@H]1CC[C@H](c2nnc(-c3cnc(-c4ccc5cc(C#N)cnn45)cc3NC(C)C)s2)CC1` [Example 126, methyl ((1r,4r)-4-(5-(6-(3-cyanopyrrolo[1,2-b]pyridazin-7-yl)-4-(isopropylamino)pyridin-3-yl)-1,3,4-thiadiazol-2-yl)cyclohexyl)carbamate], the half-maximal effective concentration (EC50) is 26.2 nM.

As for `COC(=O)NC[C@H]1C[C@H](Nc2cc(-c3ccc4cc(C#N)cnn34)ncc2-c2nnc([C@H]3CC[C@H](NC(=O)C4CC4)CC3)s2)C1` [Example 134, methyl (((1R,3r)-3-((2-(3-cyanopyrrolo[1,2-b]pyridazin-7-yl)-5-(5-((1r,4R)-4-(cyclopropanecarboxamido)cyclohexyl)-1,3,4-thiadiazol-2-yl)pyridin-4-yl)amino)cyclobutyl)methyl)carbamate], the EC50 worked out at 6.9 nM.

For `N#Cc1cnn2c(-c3cc(NC4COC4)c(-c4nnc([C@H]5CC[C@H](NC(=O)C6CC6)CC5)s4)cn3)ccc2c1` [Example 135, N-((1r,4r)-4-(5-(6-(3-cyanopyrrolo[1,2-b]pyridazin-7-yl)-4-(oxetan-3-ylamino)pyridin-3-yl)-1,3,4-thiadiazol-2-yl)cyclohexyl)cyclopropanecarboxamide], the EC50 stood at 10.5 nM.

Turning to `CC(C)Nc1cc(-c2ccc3cc(C#N)cnn23)ncc1-c1nnc(C2CCN(C3COC3)CC2)s1` [Example 138], the EC50 was determined as 15 nM.

On to `CC(C)Nc1cc(-c2ccc3cc(C#N)cnn23)ncc1-c1nnc([C@H]2CC[C@H](NC(=O)N3CCOCC3)CC2)s1` [Example 139, N-((1r,4r)-4-(5-(6-(3-cyanopyrrolo[1,2-]Apyridazin-7-yl)-4-(isopropylamino)pyridin-3-yl)-1,3,4-thiadiazol-2-yl)cyclohexyl)morpholine-4-carboxamide], for which the EC50 worked out at 5.9 nM.

Regarding `CNC(=O)N[C@H]1CC[C@H](c2nnc(-c3cnc(-c4ccc5cc(C#N)cnn45)cc3NC(C)C)s2)CC1` [Example 140, 1-((1r,4r)-4-(5-(6-(3-cyanopyrrolo[1,2-b]pyridazin-7-yl)-4-(isopropylamino)pyridin-3-yl)-1,3,4-thiadiazol-2-yl)cyclohexyl)-3-methylurea], the EC50 came out at 6.4 nM.

As for `COC(=O)NC[C@H]1C[C@H](Nc2cc(-c3ccc4cc(C#N)cnn34)ncc2-c2nnc([C@H]3CC[C@H](NC(=O)N4CCOCC4)CC3)s2)C1` [Example 143], the EC50 came out at 3.1 nM.

`CC(=O)N[C@@H]1[C@@H]2CC[C@H]1CN(c1nnc(-c3cnc(-c4ccc5cc(C#N)cnn45)cc3NC3(C)COC3)s1)C2` [Example 144, N-((1R,5S,8s)-3-(5-(6-(3-cyanopyrrolo[1,2-b]pyridazin-7-yl)-4-((3-methyloxetan-3-yl)amino)pyridin-3-yl)-1,3,4-thiadiazo1-2-yl)-3-azabicyclo[3.2.1]octan-8-yl)acetamide]: the EC50 was determined as 2.3 nM.

As to `CC(C)Nc1cc(-c2ccc3cc(C#N)cnn23)ncc1-c1nnc(N2C[C@H]3CC[C@@H](C2)[C@H]3O)s1` [Example 146, 7-(5-(5-((1R,5S,8r)-8-hydroxy-3-azabicyclo[3.2.1]octan-3-yl)-1,3,4-thiadiazol-2-yl)-4-(isopropylamino)pyridin-2-yl)pyrrolo[1,2-b]pyridazine-3-carbonitrile], the EC50 worked out at 5.2 nM.
